Reference: PMC8607422, “Development of a novel TLR8 agonist for cancer immunotherapy” (Molecular Biomedicine, 2020)
pEC50, pIC50: −log10 of the molar value. Where two headings read alike, the source gives them in different places.

Columns and labels:
hERG = biological target: T1, hERG (Homo sapiens, UniProt Q12809); assay: hERG assay, whole-cell recordings with automated QPatch in CHO cells; format: cell-based
T1 construct: expressed in transfected cells; host or cells: CHO
Protocol: hERG assay was conducted using CHO cell line stably transduced with hERG cDNA. Whole-cell recordings were performed using automated QPatch (Sophion Biosciences). Data were analyzed using Assay Software provided by Sophion (assay software V5.0), Microsoft Excel and GraphPad Prism.

hTLR9 = biological target: T2, hTLR9 (Homo sapiens, UniProt Q9NR96); assay: HEK-Blue hTLR9 SEAP reporter agonist assay; format: cell-based; details: HEK-Blue hTLR9 cells, highest concentration 50 μM
T2 construct: host or cells: HEK-Blue hTLR9
T2 sequence (Q9NR96 26-1032): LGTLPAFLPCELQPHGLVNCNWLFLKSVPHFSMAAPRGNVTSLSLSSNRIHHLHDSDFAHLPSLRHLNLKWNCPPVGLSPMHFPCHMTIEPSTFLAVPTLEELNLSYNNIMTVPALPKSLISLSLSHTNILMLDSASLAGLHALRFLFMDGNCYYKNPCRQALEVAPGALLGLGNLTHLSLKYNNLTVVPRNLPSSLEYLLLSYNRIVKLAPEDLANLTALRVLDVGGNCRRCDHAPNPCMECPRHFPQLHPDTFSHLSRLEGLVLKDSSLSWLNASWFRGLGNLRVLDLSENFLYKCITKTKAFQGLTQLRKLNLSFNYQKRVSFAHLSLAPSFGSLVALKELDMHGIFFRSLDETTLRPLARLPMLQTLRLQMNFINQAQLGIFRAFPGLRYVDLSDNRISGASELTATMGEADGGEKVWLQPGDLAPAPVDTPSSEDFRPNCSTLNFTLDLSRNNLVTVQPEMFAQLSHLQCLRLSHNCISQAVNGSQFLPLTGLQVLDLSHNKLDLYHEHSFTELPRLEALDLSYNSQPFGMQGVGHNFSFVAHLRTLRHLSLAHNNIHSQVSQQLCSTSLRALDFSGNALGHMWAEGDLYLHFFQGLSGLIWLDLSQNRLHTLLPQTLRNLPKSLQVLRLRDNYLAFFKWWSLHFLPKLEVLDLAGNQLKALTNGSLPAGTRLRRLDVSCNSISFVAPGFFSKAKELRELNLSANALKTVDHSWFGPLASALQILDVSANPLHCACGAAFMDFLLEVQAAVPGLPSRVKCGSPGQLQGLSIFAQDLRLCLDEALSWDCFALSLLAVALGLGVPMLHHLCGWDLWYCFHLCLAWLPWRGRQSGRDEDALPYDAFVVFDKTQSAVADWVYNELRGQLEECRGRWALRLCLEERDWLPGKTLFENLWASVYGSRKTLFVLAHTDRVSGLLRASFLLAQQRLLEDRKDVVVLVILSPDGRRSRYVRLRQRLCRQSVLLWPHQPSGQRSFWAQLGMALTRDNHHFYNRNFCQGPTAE
Description: HEK-Blue™ hTLR4, 7, 8 and 9 cell lines were purchased from InvivoGen (Hong Kong). The cells express the human TLR gene and NF-κB/AP-1-inducible SEAP (secreted embryonic alkaline phosphatase) reporter gene. SEAP levels produced upon TLR stimulation can be determined by QUANTI-Blue™. In the cell-based assay, the main reagents used were QUANTI-Blue™ (InvivoGen) and ATPlite 1 Step (Perkin Elmer). The main instruments used were the microplate reader SpectraMax 340PC (Molecular Device) and Envision (Perkin Elmer). Motolimod and DN052 were synthesized in house. […] The compounds were in 10 mM stock solution in DMSO and stored at − 20°C. The compounds were serially diluted in the concentration range from 0.5 nM to 15 μM (up to 50 μM in the hTLR4, hTLR7 and hTLR9 assays) and added to 96-well plates. DMSO was used as the negative control. LPS-EK, R848, motolimod and ODN2006 were used as the positive control for TLR4, 7, 8 and 9, respectively. The cells were cultured and treated with the compounds at 37°C, 5%CO2 for 24 h. […] After 1.5 h of incubation, the optical density was measured using the spectrophotometer at 650 nm in the microplate reader of SpectraMax 340PC. The cell viability of each well was determined using ATPlite 1 Step following the manufacturer’s instruction. The luminescence signal in each well of plates was measured in the microplate reader of Envision.

[1] = test system: human peripheral blood mononuclear cells (PBMCs); assay: Ex vivo human PBMC cytokine induction assay; format: cell-based; details: 24 h
Protocol: Briefly, PBMCs were isolated from fresh human blood (Chempartner, Shanghai, China). 2 × 10^5/100 μL/well hPBMCs were plated on 96-well cell culture plates. Serial dilutions of compounds with concentration range from 2 nM to 30 μM were added in duplicate wells. LPS was included as a control. The plate was incubated in a 37°C, 5% CO2 incubator for 24 h. The supernatant was harvested for cytokine detection using MILLIPLEX MAP Human Cytokine/Chemokine Magnetic Bead Panel - Immunology Multiplex Assay (Millipore) following the manufacturer’s protocol. Cytokines including TNF-α, IFN-α2, IL-1α, IL-1β, IL-6, IL-8, IL-10, IL-12p40, IL-12p70, MIP-1α, MIP-1β, G-CSF and IFN-γ were measured.

HL-60 cells = assay: Nitroblue Tetrazolium (NBT) cell differentiation assay; format: cell-based; details: Homo sapiens, unit from concentration axis
Description: Supplementary file 43556_2020_7_MOESM1_ESM.pdf: Additional file 1: Supplementary Fig. 1. […] Suplementary Fig. 2. […] Supplementary Fig. 3. Nitroblue Tetrazolium (NBT) cell differentiation assay. […] Supplementary Fig. 4. Representative data from human PBMC assay. […] Similar results were obtained from two different donors.

hERG potassium channel = test system: T3, hERG potassium channel; assay: Eurofins Cerep44 off-target panel; details: human; 10 μM compound; >50% considered significant; read-out: effect on potassium channel hERG in Cerep screen (% inhibition of binding)
T3 construct: purchased Eurofins Cerep44 panel
Protocol: Compound binding was calculated as a % inhibition of the binding of a radioactively labeled ligand specific for each target. Compound enzyme inhibition effect was calculated as a % inhibition of control enzyme activity.

T1 sequence (Q12809 whole entry): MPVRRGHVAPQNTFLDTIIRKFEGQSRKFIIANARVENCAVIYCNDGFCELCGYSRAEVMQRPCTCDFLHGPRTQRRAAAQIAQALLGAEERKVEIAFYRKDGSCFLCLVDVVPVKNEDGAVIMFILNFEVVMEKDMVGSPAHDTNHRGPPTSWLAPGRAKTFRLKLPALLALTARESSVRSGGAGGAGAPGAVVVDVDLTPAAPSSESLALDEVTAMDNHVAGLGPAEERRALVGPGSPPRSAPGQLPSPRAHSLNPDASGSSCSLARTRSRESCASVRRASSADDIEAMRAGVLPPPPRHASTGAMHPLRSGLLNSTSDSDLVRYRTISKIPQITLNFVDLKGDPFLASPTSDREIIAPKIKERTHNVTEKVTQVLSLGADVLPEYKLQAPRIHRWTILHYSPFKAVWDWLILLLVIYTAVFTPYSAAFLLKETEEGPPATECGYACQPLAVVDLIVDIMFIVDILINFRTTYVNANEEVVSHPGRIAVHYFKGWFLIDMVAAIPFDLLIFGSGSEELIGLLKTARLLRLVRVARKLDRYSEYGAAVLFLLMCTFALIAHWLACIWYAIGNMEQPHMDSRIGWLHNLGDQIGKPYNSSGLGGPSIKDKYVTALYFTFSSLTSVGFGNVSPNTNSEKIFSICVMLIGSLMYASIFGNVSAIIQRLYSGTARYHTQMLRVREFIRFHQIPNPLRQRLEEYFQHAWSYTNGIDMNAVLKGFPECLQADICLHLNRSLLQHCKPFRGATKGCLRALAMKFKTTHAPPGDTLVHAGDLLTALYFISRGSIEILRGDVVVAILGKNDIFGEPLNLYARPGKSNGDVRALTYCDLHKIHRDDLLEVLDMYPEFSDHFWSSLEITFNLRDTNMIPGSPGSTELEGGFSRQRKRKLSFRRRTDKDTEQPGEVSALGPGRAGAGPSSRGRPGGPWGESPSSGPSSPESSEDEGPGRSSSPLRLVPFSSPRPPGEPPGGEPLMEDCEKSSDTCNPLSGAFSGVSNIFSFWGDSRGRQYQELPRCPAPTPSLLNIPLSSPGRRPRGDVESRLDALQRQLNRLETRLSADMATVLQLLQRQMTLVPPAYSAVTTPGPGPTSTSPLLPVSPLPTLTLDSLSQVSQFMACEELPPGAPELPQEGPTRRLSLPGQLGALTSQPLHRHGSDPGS

CCCN(CCC)C(=O)C1=Cc2ccc(-c3ccc(C(=O)N4CCCC4)cc3)cc2N=C(N)C1 [Motolimod, motolimod]
pIC50 (hERG): 5.42
pEC50 (hTLR9): < 4.30
pEC50 ([1]; Donor 1, 24 h, read-out: EC50 G-CSF induction): 6.08
pEC50 ([1]; Donor 1, 24 h, read-out: EC50 IFN-α2 induction): 5.88
pEC50 ([1]; Donor 1, 24 h, read-out: EC50 IFN-γ induction): 5.38
pEC50 ([1]; Donor 1, 24 h, read-out: EC50 IL-1α induction): 6.07
pEC50 ([1]; Donor 1, 24 h, read-out: EC50 IL-1β induction): 6.18
pEC50 ([1]; Donor 1, 24 h, read-out: EC50 IL-6 induction): 6.37
pEC50 ([1]; Donor 1, 24 h, read-out: EC50 IL-8 induction): 6.30
pEC50 ([1]; Donor 1, 24 h, read-out: EC50 IL-10 induction): 6.52
pEC50 ([1]; Donor 1, 24 h, read-out: EC50 IL-12(p40) induction): 6.35
pEC50 ([1]; Donor 1, 24 h, read-out: EC50 IL-12(p70) induction): 6.55
pEC50 ([1]; Donor 1, 24 h, read-out: EC50 MIP-1α induction): 6.56
pEC50 ([1]; Donor 1, 24 h, read-out: EC50 MIP-1β induction): 6.56
pEC50 ([1]; Donor 1, 24 h, read-out: EC50 TNF-α induction): 6.49
pEC50 ([1]; Donor 2, 24 h, read-out: EC50 G-CSF induction): 6.34
pEC50 ([1]; Donor 2, 24 h, read-out: EC50 IFN-α2 induction): 6.46
pEC50 ([1]; Donor 2, 24 h, read-out: EC50 IFN-γ induction): 5.78
pEC50 ([1]; Donor 2, 24 h, read-out: EC50 IL-1α induction): 6.46
pEC50 ([1]; Donor 2, 24 h, read-out: EC50 IL-1β induction): 6.25
pEC50 ([1]; Donor 2, 24 h, read-out: EC50 IL-6 induction): 6.36
pEC50 ([1]; Donor 2, 24 h, read-out: EC50 IL-8 induction): 6.30
pEC50 ([1]; Donor 2, 24 h, read-out: EC50 IL-10 induction): 6.72
pEC50 ([1]; Donor 2, 24 h, read-out: EC50 IL-12(p40) induction): 6.46
pEC50 ([1]; Donor 2, 24 h, read-out: EC50 IL-12(p70) induction): < 4.52
pEC50 ([1]; Donor 2, 24 h, read-out: EC50 MIP-1α induction): 6.68
pEC50 ([1]; Donor 2, 24 h, read-out: EC50 MIP-1β induction): 6.61
pEC50 ([1]; Donor 2, 24 h, read-out: EC50 TNF-α induction): 6.50
pEC50 (HL-60 cells): 5.84
inhibition at 10 µM (hERG potassium channel): 59.2%
